Assay results published in ChEMBL document CHEMBL1177670 (Bioorg Med Chem, 2010).
pKi: −log10 of the molar value. Calls of active or inactive are those of the source. No cut-off for these calls is given here.

Legend:
D(2) dopamine receptor [1] = molecular target: T1, D(2) dopamine receptor (Homo sapiens, UniProt P14416)
D(3) dopamine receptor [2] = molecular target: T2, D(3) dopamine receptor (Homo sapiens, UniProt P35462)
[3] = molecular target: T3, Sigma non-opioid intracellular receptor 1 (Cavia porcellus, UniProt Q60492)
Description: (§1) Displacement of [3H](+)-pentazocine from sigma 1 receptor in guinea pig brain homogenates after 1 hr by liquid scintillation counting

D(4) dopamine receptor [4] = molecular target: T4, D(4) dopamine receptor (Homo sapiens, UniProt P21917)
T4 sequence (P21917 whole entry): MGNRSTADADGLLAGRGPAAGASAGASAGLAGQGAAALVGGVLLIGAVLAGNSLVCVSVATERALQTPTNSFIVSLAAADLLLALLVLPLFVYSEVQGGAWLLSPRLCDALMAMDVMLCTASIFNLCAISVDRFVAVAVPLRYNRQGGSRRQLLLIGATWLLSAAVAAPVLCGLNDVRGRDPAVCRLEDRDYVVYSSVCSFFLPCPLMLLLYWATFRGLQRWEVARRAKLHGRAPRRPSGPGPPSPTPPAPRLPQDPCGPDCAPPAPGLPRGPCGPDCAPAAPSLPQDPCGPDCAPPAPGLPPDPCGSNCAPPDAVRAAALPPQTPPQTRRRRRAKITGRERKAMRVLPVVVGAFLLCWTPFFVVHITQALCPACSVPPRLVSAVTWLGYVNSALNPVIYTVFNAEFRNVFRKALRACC

D(3) dopamine receptor [5] = molecular target: T2, D(3) dopamine receptor; experiment: biochemical
D(4) dopamine receptor [6] = molecular target: T4, D(4) dopamine receptor; experiment: biochemical
D(2) dopamine receptor [7] = molecular target: T1, D(2) dopamine receptor; experiment: biochemical
D(2) dopamine receptor [8] = molecular target: T1, D(2) dopamine receptor; experiment: Antagonist at human dopamine D2 long receptor expressed in HEK293 cells assessed as inhibition of forskolin-induced adenylyl cyclase activity at 10 nM after 20 mins by spectrophotometric analysis in presence of quinpirole; type: functional, cell-based
[9] = molecular target: T3, Sigma non-opioid intracellular receptor 1; experiment: biochemical
Description: as §1

T1 sequence (P14416 whole entry): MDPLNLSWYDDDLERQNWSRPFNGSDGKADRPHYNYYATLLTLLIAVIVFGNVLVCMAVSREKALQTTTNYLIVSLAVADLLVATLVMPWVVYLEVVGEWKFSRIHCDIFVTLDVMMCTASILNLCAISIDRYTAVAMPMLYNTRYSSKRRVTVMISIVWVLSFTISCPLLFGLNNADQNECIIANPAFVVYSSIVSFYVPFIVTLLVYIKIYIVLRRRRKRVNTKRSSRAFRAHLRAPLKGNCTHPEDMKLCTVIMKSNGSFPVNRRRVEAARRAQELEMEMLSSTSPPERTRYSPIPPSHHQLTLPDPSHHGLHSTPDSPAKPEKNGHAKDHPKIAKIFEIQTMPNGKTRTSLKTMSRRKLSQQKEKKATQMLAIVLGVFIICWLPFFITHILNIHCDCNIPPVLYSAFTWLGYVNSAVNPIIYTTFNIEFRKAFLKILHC
T3 sequence (Q60492 whole entry): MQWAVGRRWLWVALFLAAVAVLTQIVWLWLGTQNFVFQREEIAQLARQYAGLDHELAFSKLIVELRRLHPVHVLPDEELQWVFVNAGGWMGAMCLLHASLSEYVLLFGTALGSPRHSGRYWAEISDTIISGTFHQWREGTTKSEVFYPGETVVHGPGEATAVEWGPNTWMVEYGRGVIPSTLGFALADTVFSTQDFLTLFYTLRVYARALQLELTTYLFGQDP
T2 sequence (P35462 whole entry): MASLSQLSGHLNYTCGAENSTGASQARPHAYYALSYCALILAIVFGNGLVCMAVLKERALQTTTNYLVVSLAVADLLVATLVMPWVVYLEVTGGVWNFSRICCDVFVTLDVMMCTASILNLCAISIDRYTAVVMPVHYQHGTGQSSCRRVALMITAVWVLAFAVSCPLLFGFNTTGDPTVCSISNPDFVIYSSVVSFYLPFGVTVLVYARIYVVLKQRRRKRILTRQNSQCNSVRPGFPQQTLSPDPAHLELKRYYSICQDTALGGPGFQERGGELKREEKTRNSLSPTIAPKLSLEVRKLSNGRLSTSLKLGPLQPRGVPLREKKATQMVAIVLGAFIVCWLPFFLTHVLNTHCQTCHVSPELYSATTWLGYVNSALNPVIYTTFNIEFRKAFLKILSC

OC1(c2ccc(Br)cc2)CCN(Cc2c[nH]c3ccccc23)CC1
pKi (D(2) dopamine receptor [1]): 8.32 | pKi (D(3) dopamine receptor [2]): 6.96 | pKi [3]: 7.92 | pKi (D(4) dopamine receptor [4]): 6.19

CN1CN(c2ccccc2)C2(CCN(Cc3coc4ccccc34)CC2)C1=O
pKi (D(3) dopamine receptor [5]): 8.68 | pKi (D(4) dopamine receptor [6]): 6.31 | pKi (D(2) dopamine receptor [7]): 8.15

COc1cccc2[nH]cc(CN3CCC(O)(c4ccc(Cl)cc4)CC3)c12
pKi (D(2) dopamine receptor [1]): 8.38 | pKi (D(3) dopamine receptor [2]): 6.60 | pKi [3]: < 5.30 | pKi (D(4) dopamine receptor [4]): < 5.70

COc1ccc2[nH]cc(CN3CCC(O)(c4ccc(Cl)cc4)CC3)c2c1
pKi (D(2) dopamine receptor [1]): 8.38 | pKi (D(3) dopamine receptor [2]): 6.69 | pKi [3]: 6.62 | pKi (D(4) dopamine receptor [4]): < 5.46

COc1ccc2[nH]cc(CN3CCC(O)(c4ccccc4)CC3)c2c1
pKi (D(3) dopamine receptor [5]): 5.53 | pKi (D(4) dopamine receptor [6]): < 5.00 | pKi (D(2) dopamine receptor [7]): 5.86

OC1(c2ccc(I)cc2)CCN(Cc2c[nH]c3ccccc23)CC1
pKi (D(2) dopamine receptor [7]): 8.42

OC1(c2ccc(I)cc2)CCN(Cc2cc3ccccc3o2)CC1
pKi (D(3) dopamine receptor [5]): 7.31 | pKi (D(4) dopamine receptor [6]): 6.61

OC1(c2ccc(I)cc2)CCN(Cc2c[nH]c3ncccc23)CC1
pKi (D(3) dopamine receptor [5]): 5.80 | pKi (D(4) dopamine receptor [6]): 6.20 | pKi (D(2) dopamine receptor [7]): 7.21

OC1(c2ccc(I)cc2)CCN(Cc2coc3ccccc23)CC1
pKi (D(2) dopamine receptor [7]): 8.62

COc1ccc2[nH]cc(CN3CCC(O)(c4ccc(I)cc4)CC3)c2c1
pKi (D(3) dopamine receptor [5]): 7.00 | pKi (D(4) dopamine receptor [6]): 6.89 | Activity (D(2) dopamine receptor [8]): Active | pKi (D(2) dopamine receptor [7]): 9.05

OC1(c2ccc(Cl)cc2)CCN(Cc2c[nH]c3ccccc23)CC1
pKi (D(3) dopamine receptor [2]): 6.98 | pKi (D(4) dopamine receptor [4]): 6.35

OC1(c2ccc(Br)cc2)CCN(Cc2c[nH]c3ncccc23)CC1
pKi (D(3) dopamine receptor [5]): 5.53 | pKi (D(4) dopamine receptor [6]): 6.21 | pKi (D(2) dopamine receptor [7]): 6.67

OC1(c2ccc(Br)cc2)CCN(Cc2cc3ccccc3o2)CC1
pKi (D(4) dopamine receptor [6]): 6.60

CSc1ccc(C2(O)CCN(Cc3c[nH]c4ncccc34)CC2)cc1
pKi (D(3) dopamine receptor [5]): 5.31 | pKi (D(4) dopamine receptor [6]): 6.03 | pKi (D(2) dopamine receptor [7]): 6.60

O=C1N(Cc2cn(CCF)nn2)CN(c2ccccc2)C12CCN(Cc1coc3ccccc13)CC2
pKi (D(3) dopamine receptor [5]): 9.05 | pKi (D(4) dopamine receptor [6]): 6.01 | pKi (D(2) dopamine receptor [7]): 8.70

OC1(c2ccccc2)CCN(Cc2cc3ccccc3s2)CC1
pKi (D(3) dopamine receptor [5]): 6.85 | pKi (D(2) dopamine receptor [7]): 7.33 | pKi [9]: 8.67

COc1cccc2[nH]cc(CN3CCC(O)(c4ccc(I)cc4)CC3)c12
pKi (D(3) dopamine receptor [5]): 6.91 | Activity (D(2) dopamine receptor [8]): Active

OC1(c2ccc(Br)cc2)CCN(Cc2c[nH]c3ccc(OCCF)cc23)CC1
pKi (D(3) dopamine receptor [5]): 6.73 | pKi (D(4) dopamine receptor [6]): 6.46

COc1ccc2[nH]cc(CN3CCC(O)(c4ccc(Br)cc4)CC3)c2c1
pKi (D(2) dopamine receptor [1]): 8.60 | pKi [3]: 6.97 | pKi (D(4) dopamine receptor [4]): 6.15

O=C1N(CCF)CN(c2ccccc2)C12CCN(Cc1coc3ccccc13)CC2
pKi (D(3) dopamine receptor [5]): 8.03 | pKi (D(4) dopamine receptor [6]): 6.02 | pKi (D(2) dopamine receptor [7]): 8.10

COc1cccc2[nH]cc(CN3CCC(O)(c4ccc(Br)cc4)CC3)c12
pKi (D(2) dopamine receptor [1]): 8.64 | pKi (D(3) dopamine receptor [2]): 6.72 | pKi [3]: 5.59 | pKi (D(4) dopamine receptor [4]): 6.08

OC1(c2ccc(Br)cc2)CCN(Cc2coc3ccccc23)CC1
pKi (D(3) dopamine receptor [5]): 7.96 | pKi (D(2) dopamine receptor [7]): 8.18

OC1(c2ccc(Br)cc2)CCN(Cc2c[nH]c3cccc(OCCF)c23)CC1
pKi (D(3) dopamine receptor [5]): 6.07 | pKi (D(4) dopamine receptor [6]): 6.18
